Measured values taken from US9359650B2, “Biomass pre-treatment for co-production of high-concentration C5- and C6-carbohydrates and their derivatives” (Wisconsin Alumni Research Foundation, priority 2013, dated 2016).

What was measured:
[1] = tested on: E. coli MG1655; experiment: E. coli salt and GVL toxicity testing (growth, OD600); format: cell-based; conditions: E. coli MG1655, optical density after 24 hr of growth, 37° C., MOPS minimal media with 0.5% glucose plus wt % GVL or NaCl; FIGS. 22A/22B
Description: The strain used in these experiments was wild type E. coli MG1655 and in all cases was grown at 37° C. The toxicity medium used was based on MOPS minimal media with 0.5% glucose and supplemented with the appropriate wt % of GVL or sodium chloride (Sigma). A single colony of E. coli was picked from LB agar and grown overnight in 5 ml of LB media (glass culture tubes, 20×150 mm, Fisher Scientific) agitated at 250 rpm in an incubator shaker (New Brunswick Scientific). The resulting solution was used to inoculate 2 ml of the toxicity medium to an OD600 of 0.01 in 13×100 mm tubes (Fisher Scientific). The tubes were incubated for 24 hours under the same conditions as described in the main methods and a final OD600 measured using a Biomate 3 spectrophotometer (ThermoFisher).

[2] = tested on: S. cerevisiae PE2; experiment: S. cerevisiae salt and GVL toxicity testing (growth, OD600); format: cell-based; conditions: S. cerevisiae PE2, optical density after 40 hr of growth, 30° C., Yeast Nitrogen Base, 0.5% glucose plus wt % GVL or NaCl; FIGS. 22A/22B
Description: The strain used in these experiments was S. cerevisiae PE2 and in all cases was grown at 30° C. The toxicity medium used was formulated using 10x Yeast Nitrogen Base without Amino Acids, 0.5% glucose and the appropriate wt % of GVL or sodium chloride (Sigma). A single colony of S. cerevisiae was picked from YPD agar and grown overnight in 5 ml of YPD media (glass culture tubes, 20×150 mm, Fisher Scientific) agitated at 250 rpm in the incubator shaker. The resulting solution was used to inoculate 2 ml of the toxicity medium to an OD600 of 0.01 in 13×100 mm tubes (Fisher Scientific). The tubes were incubated for 40 hours under same conditions and sampled as described above.

Structure (SMILES) | effect of concentration on microbial growth (optical density) [1] | effect of concentration on microbial growth (optical density) [2]
[Cl-].[Na+] [NaCl, sodium chloride] | can inhibit microbial growth | can inhibit microbial growth
CC1CCC(=O)O1 (stereo not shown) [GVL, gamma-valerolactone] | can inhibit microbial growth | can inhibit microbial growth
